According to PubChem BioAssay (NCI):
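In this assay, cells in 96-well plates receive the compound at five concentrations for 48 hours. Endpoints are linearly interpolated between the surrounding concentrations. TGI denotes the concentration required for complete inhibition of growth.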

Assays:
Assay in all cases: growth of human tumour cells (NCI), 48 h
OVCAR-8 ovarian = tested on: OVCAR-8 ovarian
CCRF-CEM leukemia = tested on: CCRF-CEM leukemia
SK-OV-3 ovarian = tested on: SK-OV-3 ovarian
SK-MEL-5 melanoma = tested on: SK-MEL-5 melanoma
HOP-92 NSCLC = tested on: HOP-92 NSCLC
NCI-H460 lung = tested on: NCI-H460 lung
MDA-MB-435 = tested on: MDA-MB-435
HCT-116 colon = tested on: HCT-116 colon
MDA-MB-231 breast = tested on: MDA-MB-231 breast
T-47D breast = tested on: T-47D breast

| Structure (SMILES) | TGI (OVCAR-8 ovarian) [µM] | TGI (CCRF-CEM leukemia) [µM] | TGI (SK-OV-3 ovarian) [µM] | TGI (SK-MEL-5 melanoma) [µM] | TGI (HOP-92 NSCLC) [µM] | TGI (NCI-H460 lung) [µM] | TGI (MDA-MB-435) [µM] | TGI (HCT-116 colon) [µM] | TGI (MDA-MB-231 breast) [µM] | TGI (T-47D breast) [µM] |
| --- | --- | --- | --- | --- | --- | --- | --- | --- | --- | --- |
| CN1Cc2c(nc(-c3ccccc3)c[n+]2[O-])N(C)C1 | > 100 | > 100 | > 100 | > 100 | > 100 | > 100 | – | – | – | – |
| O=C1c2cccc3cccc(c23)C(=O)N1CCCNCCCCNCCCNCCCN1C(=O)c2cccc3cccc(c23)C1=O | 3.99 | > 100 | 3.42 | 8.35 | 2.37 | 1.42 | 2 | 1.57 | 2.36 | – |
| c1ccc(C(C(=Nc2ccc(Cc3ccc(N=C(C(c4ccccc4)c4ccccc4)N4CC4)cc3)cc2)N2CC2)c2ccccc2)cc1 | 22.5 | 49.8 | 11.1 | 20.1 | – | 13.4 | 21.1 | > 100 | 29.2 | 16.5 |
| CC(C)(CO)CNc1nc(N)nc(Cl)c1/C=N/O | > 100 | > 100 | – | 18.8 | 84.7 | > 100 | > 100 | > 100 | > 100 | 38.9 |
| O=c1onc2n1-c1cc(Cl)ccc1C(=S)N1CSCC21 (stereo unspecified) | > 100 | > 100 | > 100 | > 100 | – | > 100 | > 100 | > 100 | > 100 | > 100 |
| Cc1cc(C)nc(NC(=S)Nc2ccc([N+](=O)[O-])cc2)c1 | > 100 | > 100 | – | > 100 | > 100 | > 100 | > 100 | > 100 | > 100 | > 100 |
| O=C1CSC2(CC(/C=C/c3cccs3)=NN2c2cccc(S(=O)(=O)O)c2)N1c1nc2ccccc2s1 (stereo unspecified) | > 100 | > 100 | – | > 100 | > 100 | > 100 | > 100 | > 100 | > 100 | 80.2 |
| CC(C)(C)N=C(N)NC#N | > 100 | > 100 | > 100 | > 100 | > 100 | > 100 | > 100 | > 100 | > 100 | – |
| Cc1ccnc(NC(=S)Nc2ccc([N+](=O)[O-])cc2)c1 | > 100 | > 100 | > 100 | > 100 | > 100 | > 100 | > 100 | > 100 | – | > 100 |
| C=C1C(=O)[C@@]23CC[C@@H]4[C@@]5(C)CCC[C@@]4(OC5=O)[C@@]2(C)CC[C@@H]1C3 | 8.54 | > 33.7 | 23.3 | 3.49 | 57.7 | 3.74 | 13.7 | 2.92 | – | 57.9 |
| Nc1ncc2c(n1)-c1ccccc1OC2N1CCCC1 (stereo unspecified) | > 100 | > 100 | > 100 | > 100 | > 100 | > 100 | > 100 | > 100 | > 100 | – |
